Common to all, as to experiment: Fluorescein-AMP
Holding throughout (type): biochemical

Experiment [1] concerns the target PDE3A (Homo sapiens, UniProt Q14432).
The target in experiment [2] is PDE8A1 (Homo sapiens, UniProt O60658).
Experiment [3] deals with PDE5A (Homo sapiens, UniProt O76074).
In experiment [4] the target is PDE10A2 (Homo sapiens, UniProt Q9Y233).
Sequence of PDE10A2 (Q9Y233 267-1055): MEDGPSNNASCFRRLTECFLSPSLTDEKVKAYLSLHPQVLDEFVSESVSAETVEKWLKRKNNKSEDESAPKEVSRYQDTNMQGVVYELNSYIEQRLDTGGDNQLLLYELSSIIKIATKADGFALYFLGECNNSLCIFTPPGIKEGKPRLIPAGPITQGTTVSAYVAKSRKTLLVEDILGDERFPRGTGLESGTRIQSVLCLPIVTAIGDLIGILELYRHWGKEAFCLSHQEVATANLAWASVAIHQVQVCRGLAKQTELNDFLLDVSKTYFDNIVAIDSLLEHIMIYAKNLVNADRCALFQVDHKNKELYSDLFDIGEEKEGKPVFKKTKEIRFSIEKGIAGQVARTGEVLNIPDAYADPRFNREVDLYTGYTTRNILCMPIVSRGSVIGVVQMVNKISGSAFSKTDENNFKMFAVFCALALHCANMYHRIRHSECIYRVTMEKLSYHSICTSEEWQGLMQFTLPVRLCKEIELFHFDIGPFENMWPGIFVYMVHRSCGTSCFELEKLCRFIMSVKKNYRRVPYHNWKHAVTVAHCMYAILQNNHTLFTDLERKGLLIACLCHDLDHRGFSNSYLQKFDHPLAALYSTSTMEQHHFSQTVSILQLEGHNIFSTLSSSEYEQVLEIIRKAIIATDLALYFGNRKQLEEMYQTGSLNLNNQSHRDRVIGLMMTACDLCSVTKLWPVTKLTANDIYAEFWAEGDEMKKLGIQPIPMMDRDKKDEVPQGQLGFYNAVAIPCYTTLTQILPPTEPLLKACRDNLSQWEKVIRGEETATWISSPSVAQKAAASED

Sequence of PDE3A (Q14432 whole entry): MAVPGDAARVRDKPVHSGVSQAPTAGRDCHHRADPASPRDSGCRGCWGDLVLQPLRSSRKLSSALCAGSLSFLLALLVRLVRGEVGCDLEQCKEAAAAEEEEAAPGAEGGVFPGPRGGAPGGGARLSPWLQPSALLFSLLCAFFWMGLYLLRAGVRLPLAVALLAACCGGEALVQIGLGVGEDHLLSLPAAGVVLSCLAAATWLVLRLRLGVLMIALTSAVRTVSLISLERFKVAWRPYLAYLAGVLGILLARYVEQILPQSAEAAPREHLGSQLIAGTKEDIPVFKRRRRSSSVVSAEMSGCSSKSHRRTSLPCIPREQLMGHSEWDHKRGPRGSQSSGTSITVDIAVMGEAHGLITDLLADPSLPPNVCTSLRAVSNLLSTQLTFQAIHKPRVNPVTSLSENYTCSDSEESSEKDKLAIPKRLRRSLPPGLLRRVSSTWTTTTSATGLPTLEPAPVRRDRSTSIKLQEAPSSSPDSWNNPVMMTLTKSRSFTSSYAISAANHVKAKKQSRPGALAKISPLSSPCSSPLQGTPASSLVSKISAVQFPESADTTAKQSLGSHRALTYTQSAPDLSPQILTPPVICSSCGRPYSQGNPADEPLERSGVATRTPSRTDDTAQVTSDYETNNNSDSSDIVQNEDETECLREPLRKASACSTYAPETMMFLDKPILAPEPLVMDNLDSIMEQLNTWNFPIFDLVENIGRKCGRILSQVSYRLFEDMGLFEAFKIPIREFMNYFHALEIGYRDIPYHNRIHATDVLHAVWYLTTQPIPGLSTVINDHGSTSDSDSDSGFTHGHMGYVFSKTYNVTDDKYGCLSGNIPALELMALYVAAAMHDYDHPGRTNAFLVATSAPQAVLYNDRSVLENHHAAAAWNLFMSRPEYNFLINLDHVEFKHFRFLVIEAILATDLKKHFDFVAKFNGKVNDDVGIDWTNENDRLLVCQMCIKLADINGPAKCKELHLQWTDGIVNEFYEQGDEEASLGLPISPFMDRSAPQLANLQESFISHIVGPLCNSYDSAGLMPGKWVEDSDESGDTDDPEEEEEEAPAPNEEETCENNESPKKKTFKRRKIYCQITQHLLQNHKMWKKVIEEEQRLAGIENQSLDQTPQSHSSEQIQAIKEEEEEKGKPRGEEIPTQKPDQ
Sequence of PDE8A1 (O60658 whole entry): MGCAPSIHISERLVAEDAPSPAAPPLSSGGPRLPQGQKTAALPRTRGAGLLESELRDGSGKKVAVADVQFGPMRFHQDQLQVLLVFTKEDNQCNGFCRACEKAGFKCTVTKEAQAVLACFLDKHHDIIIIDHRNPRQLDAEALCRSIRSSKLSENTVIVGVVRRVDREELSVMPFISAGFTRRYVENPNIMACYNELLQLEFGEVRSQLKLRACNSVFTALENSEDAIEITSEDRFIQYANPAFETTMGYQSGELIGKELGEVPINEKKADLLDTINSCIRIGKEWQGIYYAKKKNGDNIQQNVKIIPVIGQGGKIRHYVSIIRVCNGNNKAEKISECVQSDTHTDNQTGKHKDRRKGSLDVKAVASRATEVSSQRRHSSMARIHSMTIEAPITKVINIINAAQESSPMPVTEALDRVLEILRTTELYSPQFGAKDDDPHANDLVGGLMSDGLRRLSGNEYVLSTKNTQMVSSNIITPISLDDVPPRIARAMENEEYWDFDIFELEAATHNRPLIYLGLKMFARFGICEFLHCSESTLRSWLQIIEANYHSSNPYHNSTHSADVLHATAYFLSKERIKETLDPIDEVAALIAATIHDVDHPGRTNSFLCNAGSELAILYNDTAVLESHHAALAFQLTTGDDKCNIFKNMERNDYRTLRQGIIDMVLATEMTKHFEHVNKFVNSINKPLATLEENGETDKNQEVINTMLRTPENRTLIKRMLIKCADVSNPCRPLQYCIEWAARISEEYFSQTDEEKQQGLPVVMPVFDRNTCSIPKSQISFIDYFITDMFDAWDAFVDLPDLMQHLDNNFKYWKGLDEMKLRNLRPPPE

As for `COc1cc(-c2cc(=O)c3c(O)c(OC)c(O)c(OC)c3o2)ccc1O` [Sudachitin], the 50% inhibitory concentration (IC50) (commonly the midpoint of a concentration-inhibition curve) is 5.19 µM in experiment [1], 26.3 µM in experiment [2], 6.54 µM in experiment [3] and 9.99 µM in experiment [4].

Source of the values: publication PMC11367099 (Heliyon, 2024).
